Assay results: US20240109905A1, “4-ALKOXY-6-OXO-PYRIDAZINE DERIVATIVES MODULATING NLRP3” (JANSSEN PHARMACEUTICA NV, priority 2021, published 2024)
Like-named read-outs stand apart in the source and are kept apart here.

What was measured:
IL-1β = assay: PBMC assay: IL-1β release after LPS stimulation; format: cell-based; settings: human PBMCs, 30 min compound, 100 ng/ml LPS for 6 hrs, MSD, read-out: IL1β AC50
Procedure: The activity of a compound according to the present invention can be assessed by in vitro methods.
(§1) Peripheral venous blood was collected from healthy individuals and human peripheral blood mononuclear cells (PBMCs) were isolated from blood by Ficoll-Histopaque (Sigma-Aldrich, A0561) density gradient centrifugation. After isolation, PBMCs were stored in liquid nitrogen for later use. Upon thawing, PBMC cell viability was determined in growth medium (RPMI media supplemented with 10% fetal bovine serum, 1% Pen-Strep and 1% L-glutamine). Compounds were spotted in a 1:3 serial dilution in DMSO and diluted to the final concentration in 30 μl medium in 96 well plates (Falcon, 353072). PBMCs were added at a density of 7.5×10^4 cells per well and incubated for 30 min in a 5% CO2 incubator at 37° C. LPS stimulation was performed by addition of 100 ng/ml LPS (final concentration, Invivogen, tlrl-smlps) for 6 hrs followed by collection of cellular supernatant and the analysis of IL-1β (μM) and TNF cytokines levels (μM) via MSD technology according to manufacturers' guidelines (MSD, K151A0H).
(§2) IC50 and AC50 values (for […]) and EC50 and AC50 values (TNF) were obtained on compounds of the invention/examples, and the AC50 values are depicted in the following table: […]

TNF = assay: PBMC assay: TNF cytokine level after LPS stimulation; format: cell-based; settings: human PBMCs, 30 min compound, 100 ng/ml LPS for 6 hrs, MSD
Procedure: as §1, §2

## CC(C)COc1cc(=O)n(CC(=O)NC23CC(C(C)(C)O)(C2)C3)nc1C(C)C [Compound 85, N-(3-(2-hydroxypropan-2-yl)bicyclo[1.1.1]pentan-1-yl)-2-(4-isobutoxy-3-isopropyl-6-oxopyridazin-1(6H)-yl)acetamide]
IL-1β; PBMC
  AC50: 650 nM
TNF; PBMC
  AC50: > 20000 nM

## CC(C)COc1cc(=O)n(CC(=O)NC23CCC(N)(C2)C3)nc1C(C)C [Compound 86]
IL-1β; PBMC
  AC50: 660 nM
TNF; PBMC
  AC50: > 20000 nM

## CC(C)COc1cc(=O)n(CC(=O)Nc2nc3cc(C(F)(F)F)ccn3n2)nc1C(C)C [Compound 87]
IL-1β; PBMC
  AC50: 660 nM
TNF; PBMC
  AC50: > 20000 nM

## CC(C)COc1cc(=O)n(CC(=O)NC23CCC(O)(CC2)CC3)nc1C(C)C [Compound 88]
IL-1β; PBMC
  AC50: 660 nM
TNF; PBMC
  AC50: > 20000 nM

## CC(C)COc1cc(=O)n(CC(=O)N[C@H]2C[C@]3(CCN3C)C2)nc1C(C)C [Compound 89, 2-(4-isobutoxy-3-isopropyl-6-oxopyridazin-1(6H)-yl)-N-((4s,6r)-1-methyl-1-azaspiro[3.3]heptan-6-yl)acetamide]
IL-1β; PBMC
  AC50: 670 nM
TNF; PBMC
  AC50: > 20000 nM

## Cc1noc(C23CC(NC(=O)Cn4nc(C(C)C)c(OCC(C)C)cc4=O)(C2)C3)n1 [Compound 90, 2-(4-isobutoxy-3-isopropyl-6-oxopyridazin-1(6H)-yl)-N-(3-(3-methyl-1,2,4-oxadiazol-5-yl)bicyclo[1.1.1]pentan-1-yl)acetamide]
IL-1β; PBMC
  AC50: 680 nM
TNF; PBMC
  AC50: > 20000 nM

## Cc1ccn2nc(NC(=O)Cn3nc(C(C)C)c(OCC(C)C)cc3=O)nc2c1 [Compound 91]
IL-1β; PBMC
  AC50: 690 nM
TNF; PBMC
  AC50: > 20000 nM

## CC(C)COc1cc(=O)n(CC(=O)NC23CC(C)(C2)C3)nc1C(C)C [Compound 92]
IL-1β; PBMC
  AC50: 710 nM
TNF; PBMC
  AC50: > 20000 nM

## CC(C)c1nn(CC(=O)Nc2ccc3nncn3c2)c(=O)c(Cl)c1OCC(C)(F)F [Compound 93]
IL-1β; PBMC
  AC50: 770 nM
TNF; PBMC
  AC50: 8920 nM

## CC(C)COc1cc(=O)n(CC(=O)NC23CC(N4CCOCC4)(C2)C3)nc1C(C)C [Compound 94]
IL-1β; PBMC
  AC50: 780 nM
TNF; PBMC
  AC50: > 20000 nM

## CN(C)c1nn(CC(=O)Nc2ccc3nncn3n2)c(=O)cc1OCC(F)(F)F [Compound 95]
IL-1β; PBMC
  AC50: 790 nM
TNF; PBMC
  AC50: 18200 nM

## CC(C)COc1cc(=O)n(CC(=O)NC2(CC(=O)O)CCCC2)nc1C(C)C [Compound 96]
IL-1β
  AC50: 870 nM
TNF
  AC50: > 20000 nM

## CC(C)COc1cc(=O)n(CC(=O)Nc2cn3ccncc3n2)nc1C(C)C [Compound 97]
IL-1β; PBMC
  AC50: 950 nM
TNF; PBMC
  AC50: 5010 nM

## CC(C)COc1cc(=O)n(CC(=O)NC23CC(C4=NN(C)C(=O)C4)(C2)C3)nc1C(C)C [Compound 98, 2-(4-isobutoxy-3-isopropyl-6-oxopyridazin-1(6H)-yl)-N-(3-(1-methyl-5-oxo-4,5-dihydro-1H-pyrazol-3-yl)bicyclo[1.1.1]pentan-1-yl)acetamide]
IL-1β; PBMC
  AC50: 960 nM
TNF; PBMC
  AC50: > 20000 nM

## CC(C)COc1cc(=O)n(CC(=O)NC23CCC(N)(CC2)CC3)nc1C(C)C [Compound 99]
IL-1β; PBMC
  AC50: 970 nM
TNF; PBMC
  AC50: > 20000 nM

## CC(C)COc1cc(=O)n(CC(=O)Nc2cn3cccnc3n2)nc1C(C)C [Compound 100]
IL-1β; PBMC
  AC50: 1000 nM
TNF; PBMC
  AC50: 4810 nM

## CC(C)COc1cc(=O)n(CC(=O)NC23CC(S(C)(=O)=O)(C2)C3)nc1C(C)C [Compound 101]
IL-1β; PBMC
  AC50: 1020 nM
TNF; PBMC
  AC50: > 20000 nM

## CC(C)c1nn(CC(=O)Nc2ccc3nncn3n2)c(=O)cc1OCCC(F)(F)F [Compound 102]
IL-1β; PBMC
  AC50: 1060 nM
TNF; PBMC
  AC50: > 20000 nM

## CC(C)COc1cc(=O)n(CC(=O)Nc2cc3ncccn3n2)nc1C(C)C [Compound 103]
IL-1β; PBMC
  AC50: 1100 nM
TNF; PBMC
  AC50: > 20000 nM

## CC(C)COc1cc(=O)n(CC(=O)NC23CCC(C(=O)O)(CC2)C3)nc1C(C)C [Compound 104]
IL-1β; PBMC
  AC50: 1120 nM
TNF; PBMC
  AC50: > 20000 nM

## CC(C)COc1cc(=O)n(CC(=O)NC23CC(F)(C2)C3)nc1C(C)C [Compound 105]
IL-1β; PBMC
  AC50: 1210 nM
TNF; PBMC
  AC50: > 20000 nM

## CN(C)c1nn(CC(=O)Nc2ccc3nncn3c2)c(=O)cc1OCC(F)(F)F [Compound 106]
IL-1β; PBMC
  AC50: 1210 nM
TNF; PBMC
  AC50: > 20000 nM
